The structures appear in SMILES notation.

The target in this test is T1, Aβ40 and Aβ42 peptides in plasma and brain of TgCRND8 mice (Homo sapiens, UniProt P05067).
T1 construct: ELISA using Human Aβ40 and Aβ42 Fluorometric ELISA kits from Biosource; from tissue; host or cells: plasma and brain homogenate of TgCRND8 transgenic mice (hAPP transgene)
Put plainly: Short term treatment in adult transgenic CRND8 mice overexpressing βAPP: Aβ levels in plasma and brain by ELISA. In kind it is in vivo, Mouse. The note with it: TgCRND8 mice. An excerpt:
Transgenic mice, […]8, expressing the human amyloid precursor protein (hAPP) develop a pathology resembling Alzheimer's disease. In particular, high levels of Aβ40 and Aβ 42 have been documented in the plasma and the brain of these animals at 8-9 weeks of age, followed by early accumulation of amyloid plaques similar to the senile plaques observed in AD patients. These animals also display progressive cognitive deficits that parallel the appearance of degenerative changes. See, […], et al., J. Biol. Chem. 276, 21562-70 (2001). The short term therapeutic effect of 19 compounds of the invention was studied. […] The following abbreviations are used to designate these animals from the 3rd and 4th generation backcross in the present protocol: TgCRND8-2.B6C3F1(N3); TgCRND8-2.B6C3F1(N4). Baseline animals (Group 1) consisted of naive TgCRND8-2. B6C3F1(N3) at 11±1 weeks of age. These mice were used to determine the Aβ levels in the plasma and brain of naive transgenic animals at the initiation of treatment. […] At the end of the treatment periods, plasma and perfused brains were collected for quantification of Aβ levels. […] Plasma samples were immediately frozen and stored at -80° C. pending analysis. The brains were removed, frozen, and stored at -80° C. awaiting analysis. […] Samples were spun at 15000 g for 20 minutes and the supernatants were transferred to fresh tubes. […] The tubes were vortexed for 30 seconds and frozen at -80° C. […] Samples were thawed at room temperature, sonicated at 80° C. for 15 minutes and frozen again. This cycle was repeated 3 times to ensure homogeneity and samples were returned to -80° C. pending analysis. Aβ levels were evaluated in plasma and brain samples by ELISA using Human Aβ40 and Aβ42 Fluorometric ELISA kits from Biosource (Cat. […] In short, samples were thawed at room temperature, sonicated for 5 minutes at 80° C. (sonication for brain homogenates; no sonication for plasma samples) and kept on ice. Aβ peptides were captured using 100 μl of the diluted samples to the plate and incubated without shaking at 4° C. overnight. The samples were aspirated and the wells were rinsed 4 times with wash buffer obtained from the Biosource ELISA kit. The anti-Aβ40 or anti-Aβ42 rabbit polyclonal antiserum (specific for the Aβ40 or Aβ42 peptide) was added (100 μl) and the plate was incubated at room temperature for 2 hours with shaking. The wells were aspirated and washed 4 times before adding 100 μl of the alkaline phosphatase labeled anti-rabbit antibody and incubating at room temperature for 2 hours with shaking. The plates were then rinsed 5 times and the fluorescent substrate (100 μl) was added to the plate. The plate was incubated for 35 minutes at room temperature and the plate was read using a titer plate reader at an excitation wavelength of 460 nm and emission at 560 nm Compounds were scored based on their ability to modulate levels of Aβ peptides in the plasma and the cerebral soluble/insoluble levels in the brain. Levels of Aβ observed in the plasma and brain of treated animals were normalized using values from vehicle-treated (water) or methylcellulose-treated control groups and ranked according to the strength of the pharmacological effect. Increases in the levels of Aβ peptides are indicated using “+” symbols, while decreases in the levels of Aβ peptides are indicated using “-” symbols. The strongest effects are recorded as “+++” or “- - -” while the weakest are shown as “+” or “-”.
A general note: In an ELISA, binding on a coated surface is turned into a signal by an enzyme label.

Where [1] appears, read: Brain Homogenate Methylcellulose Group, Day 14, 250 mg/kg daily oral.
The mark [2] stands for this setting: Brain Homogenate Methylcellulose Group, Day 28, 250 mg/kg daily oral.
Setting [3] is: Plasma Methylcellulose Group, Day 28, 250 mg/kg daily oral in 1% methylcellulose, normalized to methylcellulose control.
Where [4] appears, read: Brain Homogenate Vehicle Group, Day 14, 250 mg/kg daily.
Where [5] appears, read: Brain Homogenate Vehicle Group, Day 28, 250 mg/kg daily.
Where [6] appears, read: Plasma Vehicle Group, Day 14, 250 mg/kg daily subcutaneous, normalized to water vehicle control.

Consider `O=S(=O)(O)CCCNC12CC3CC(CC(C3)C1)C2` [BW, 3-(1-adamantyl)amino-1-propanesulfonic acid], for which, under setting [1], the “Brain homogenate Aβ40 Change Insoluble” value is on record as “−−− (decreases of 39% or more are scored as “− − −”)”, the “Brain homogenate Aβ42 Change Insoluble” value is “−−− (decreases of 39% or more are scored as “− − −”)” and the “Brain homogenate Aβ42 Change Soluble” value is recorded as “−− (decreases of 20 to 38% are scored as “− −”)”. Besides, under setting [2], the “Brain homogenate Aβ40 Change Insoluble” value is recorded as “− (Decreases in the levels of Aβ of 5 to 19% are scored as “−”)”, the “Brain homogenate Aβ40 Change Soluble” value is recorded as “− (Decreases in the levels of Aβ of 5 to 19% are scored as “−”)”, the “Brain homogenate Aβ42 Change Insoluble” value is listed as “−− (decreases of 20 to 38% are scored as “− −”)” and the “Brain homogenate Aβ42 Change Soluble” value is on record as “− (Decreases in the levels of Aβ of 5 to 19% are scored as “−”)”. The “Plasma Aβ42 Change” value under setting [3] was “+ (increases in the levels of Aβ (relative to untreated control) of 20 to 39% are scored as “+”)”.

Consider `CC(C)(C)NCCCS(=O)(=O)O` [BX, 3-(t-butyl)amino-1-propanesulfonic acid], for which, under setting [4], the “Brain homogenate Aβ40 Change Insoluble” value was “−−− (decreases of 39% or more are scored as “− − −”)”, the “Brain homogenate Aβ40 Change Soluble” value was “− (Decreases in the levels of Aβ of 5 to 19% are scored as “−”)”, the “Brain homogenate Aβ42 Change Insoluble” value is given as “−−− (decreases of 39% or more are scored as “− − −”)” and the “Brain homogenate Aβ42 Change Soluble” value is given as “−− (decreases of 20 to 38% are scored as “− −”)”. Also, under setting [5], the “Brain homogenate Aβ40 Change Insoluble” value is reported as “−−− (decreases of 39% or more are scored as “− − −”)”, the “Brain homogenate Aβ40 Change Soluble” value was “−−− (decreases of 39% or more are scored as “− − −”)”, the “Brain homogenate Aβ42 Change Insoluble” value is listed as “− (Decreases in the levels of Aβ of 5 to 19% are scored as “−”)” and the “Brain homogenate Aβ42 Change Soluble” value is “−− (decreases of 20 to 38% are scored as “− −”)”. Moreover, under setting [6], the “Plasma Aβ40 Change” value is on record as “+++ (increases of 70% or higher are scored as “+ + +”)” and the “Plasma Aβ42 Change” value is “++ (increases of 40 to 69% are scored as “++”)”. The “Plasma Aβ40 Change” value (Plasma Vehicle Group, Day 28, 250 mg/kg daily subcutaneous, normalized to water vehicle control) is listed as “+++ (increases of 70% or higher are scored as “+ + +”)”.

In the case of `O=S(=O)(O)CCCNC1C2CC3CC(C2)CC1C3` (stereo not drawn) [BZ, 3-(2-adamantyl)amino-1-propanesulfonic acid], under setting [1], the “Brain homogenate Aβ40 Change Insoluble” value is “−−− (decreases of 39% or more are scored as “− − −”)” and the “Brain homogenate Aβ42 Change Insoluble” value is given as “−− (decreases of 20 to 38% are scored as “− −”)”. Further, under setting [2], the “Brain homogenate Aβ40 Change Insoluble” value was “−− (decreases of 20 to 38% are scored as “− −”)”, the “Brain homogenate Aβ40 Change Soluble” value is reported as “−− (decreases of 20 to 38% are scored as “− −”)” and the “Brain homogenate Aβ42 Change Insoluble” value was “−− (decreases of 20 to 38% are scored as “− −”)”. Further, where the note is “Plasma Methylcellulose Group, Day 14, 250 mg/kg daily oral in 1% methylcellulose, normalized to methylcellulose control”, the “Plasma Aβ40 Change” value is on record as “+ (increases in the levels of Aβ (relative to untreated control) of 20 to 39% are scored as “+”)”. Under setting [3], the “Plasma Aβ40 Change” value was “++ (increases of 40 to 69% are scored as “++”)” and the “Plasma Aβ42 Change” value was “++ (increases of 40 to 69% are scored as “++”)”.

The values are drawn from patent US8642801B2 (BHI Limited Partnership, priority 2003, dated 2014).
